What was measured:
Type in all cases: in vivo
[1] = tested on: green peach aphid (Myzus persicae); assay: Myzus persicae oral test; details: 120 h, application rate 4 ppm, after 5 days
In short: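 Acetone stock (1 pbw compound/100 pbw solvent) diluted in water; mixed with sugar-supplemented IPL41 medium; parafilm-sealed; mixed aphid population sucks through film; mortality % read at 5 d.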

[2] = tested on: Rhipicephalus microplus larvae (strain Parkhurst, resistant against synthetic pyrethroids); assay: Rhipicephalus (Boophilus) microplus in-vitro contact test, larval cattle tick; details: after 48 hours, read-out: activity (efficacy: larvae dead or moribund); for pest or weed control at 100 g/ha: application rate 1 pg/cm^2 (=100 g/ha); for pest or weed control at 500 g/ha: application rate 5 pg/cm^2 (=500 g/ha)
In short: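 Acetone solutions coated onto inner walls of glass tubes by rotation (900 ppm giving 5 μg/cm^2); after evaporation, 20-50 larvae added per tube and held at 27° C., 85% relative humidity. Efficacy read after 48 h from negative geotactic behaviour; 100% = all larvae dead or moribund.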

[3] = tested on: larvae of the banded cucumber beetle (Diabrotica balteata); assay: Diabrotica balteata spray test; details: 168 h, application rate 100 g/ha (=32 pg/well), after 7 days, read-out: activity (efficacy: seedlings grown)
In short: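 Wheat seedlings, germinated 1 day on agar (5 seeds/well), sprayed with active compound in acetone/DMF diluted in water containing 1000 ppm emulsifier, then infested with 10-20 D. balteata larvae. Efficacy (%) scored after 7 days: 100% = seedlings grown as untreated uninfested control, 0% = no seedlings grown.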

[4] = tested on: fall armyworm larvae (Spodoptera frugiperda); assay: Spodoptera frugiperda spray test; details: 168 h, read-out: activity (mortality)
In short: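 Compound in acetone/DMF, diluted in water with 1000 ppm alkylarylpolyglycol ether emulsifier, sprayed on maize leaf sections. Dried leaves infested with fall armyworm larvae; % mortality after 7 days (100% = all killed, 0% = none).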

[5] = tested on: adult brown dog ticks (Rhipicephalus sanguineus); assay: Rhipicephalus sanguineus in-vitro contact test, adult brown dog ticks; details: after 48 hours, read-out: activity (efficacy: ticks dead or moribund); for pest or weed control at 100 g/ha: application rate 1 pg/cm^2 (=100 g/ha); for pest or weed control at 5 µg/cm2, 500 g/ha: application rate 5 μg/cm^2 (=500 g/ha)
In short: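 Acetone solution (900 ppm giving 5 μg/cm²) coated on inner walls of glass tubes; after drying, 5-10 adult ticks added and held at room temperature 48 h. Ticks then placed on 45-50 °C plate ≤5 min; those unable to climb away scored dead/moribund, efficacy as % affected.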

[6] = tested on: adult unfed cat fleas (Ctenocephalides felis); assay: Ctenocephalides felis oral test; details: 48 h, read-out: activity (mortality)
Experimental: Ctenocephalides felis—Oral Test
Solvent: dimethyl sulfoxide
To produce a suitable preparation of active compound, 10 mg of active compound are dissolved in 0.5 mL solvent, and the concentrate is diluted with cattle blood to the desired concentration.
Approximately 20 adult unfed cat fleas (Ctenocephalides felis) are placed in flea chambers. The blood chamber, sealed with parafilm on the bottom, are filled with cattle blood supplied with compound solution and placed on the gauze covered top of the flea chamber, so that the fleas are able to suck the blood. The blood chamber is heated to 37° C. whereas the flea chamber is kept at room temperature.
After 2 days mortality in % is determined. 100% means all the fleas have been killed; 0% means none of the fleas have been killed.

[7] = tested on: adult engorged female ticks (Rhipicephalus microplus); assay: Rhipicephalus (Boophilus) microplus injection test; details: 168 h, egg deposition after 7 days, read-out: activity (efficacy: infertile eggs); for pest or weed control at 4 pg: application rate 4 pg/animal; for pest or weed control at 0.02 mg: application rate 20 μg/animal
In short: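 Five adult engorged female ticks injected into the abdomen with 1 μL compound solution in DMSO, then held in a climate chamber. Fertile egg deposition assessed after 7 days, unclear eggs kept until hatching (about 42 days); efficacy 100% = all eggs infertile, 0% = all fertile.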

[8] = tested on: adult cat fleas (Ctenocephalides felis); assay: Ctenocephalides felis in-vitro contact test, adult cat flea; details: application rate 5 μg/cm^2 (=500 g/ha), after 48 hours, read-out: activity (efficacy: fleas dead or moribund)
Experimental: Ctenocephalides felis—In-Vitro Contact Tests Adult Cat Flea
9 mg compound is solved in 1 mL acetone and diluted with acetone to the desired concentration. 250 μL of the test solution is filled in 25 mL glass test tubes and homogeneously distributed on the inner walls by rotation and tilting on a shaking device (2 h at 30 rpm). With a compound concentration of 900 ppm, an inner surface of 44.7 cm^2 and a homogeneous distribution, a dose of […] is achieved.
After the solvent has evaporated, each test tube is filled with 5-10 adult cat fleas (Ctenocephalides felis), closed with a perforated lid and incubated in a lying position at room temperature and relative humidity. After 48 hours efficacy is determined. The fleas are patted on the ground of the tubes and are incubated on a heating plate at 45-50° C. for at most 5 minutes. Immotile or uncoordinated moving fleas, which are not able to escape the heat by climbing upwards, are marked as dead or moribund.
An efficacy of 100% means all fleas are dead or moribund; 0% means no fleas are dead or moribund.

[9] = tested on: green peach aphid (Myzus persicae); assay: Myzus persicae spray test; details: 120 h, after 5 days; for mortality at 100 g/ha: application rate 100 g/ha; for mortality at 500 g/ha: application rate 500 g/ha
Experimental: Myzus persicae—Spray Test
Solvent: 78.0 parts by weight acetone • 1.5 parts by weight dimethylformamide
Emulsifier: alkylarylpolyglycol ether
To produce a suitable preparation of active compound, 1 part by weight of active compound is mixed with the stated amount of solvents and is diluted with water, containing an emulsifier concentration of 1000 ppm, to the desired concentration. Further test concentrations are prepared by dilution with emulsifier containing water.
Chinese cabbage (Brassica pekinensis) leaf disks infected with all instars of the green peach aphid (Myzus persicae), are sprayed with a preparation of the active ingredient of the desired concentration.
After 5 days mortality in % is determined. 100% means all aphids have been killed and 0% means none of the aphids have been killed.

[10] = tested on: larvae of the southern green stink bug (Nezara viridula); assay: Nezara viridula spray test; details: 96 h, after 4 days; for mortality at 100 g/ha: application rate 100 g/ha; for mortality at 500 g/ha: application rate 500 g/ha
In short: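 Compound in acetone/dimethylformamide, diluted in water with 1000 ppm alkylarylpolyglycol ether emulsifier, sprayed onto barley plants carrying stink bug larvae. Mortality (%) scored after 4 days, 100% meaning all insects killed.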

[11] = tested on: Aedes aegypti strain MONHEIM; assay: Aedes aegypti test (AEDSAE surface treatment & contact assay); details: 24 hours after contact, read-out: efficacy (mortality); for mortality at 4 mg/m2: surface concentration 4 mg/m^2, exposure 30 minutes
Experimental: Aedes aegypti Test (AEDSAE Surface Treatment & Contact Assay)
Solvent: Aceton+2000 ppm rapeseed oil methyl ester (RME)
In order to produce a sufficient, active ingredient containing solution it is necessary to solve the test compound in the solvent-mix (acetone at 2 mg/ml/RME 2000 ppm). This solution is pipetted onto a glazed tile and after evaporation of the acetone, adult mosquitoes of the species Aedes aegypti strain MONHEIM are placed onto the dried surface. The exposure time is 30 minutes. Mortality in percent (%) is determined 24 hours after contact of the insects to the treated surface. 100% mortality means that all tested insects are dead, whereas 0% means that no insect died.

Row | SMILES | mortality at 4 ppm [1] | pest or weed control at 100 g/ha [2] | pest or weed control at 500 g/ha [2] | pest or weed control at 100 g/ha [3] | mortality at 100 g/ha [4] | pest or weed control at 100 g/ha [5] | pest or weed control at 5 µg/cm2, 500 g/ha [5] | mortality at 100 ppm [6] | pest or weed control at 4 pg [7] | pest or weed control at 0.02 mg [7] | pest or weed control at 5 µg/cm2 [8] | mortality at 100 g/ha [9] | mortality at 100 g/ha [10] | mortality at 500 g/ha [9] | mortality at 500 g/ha [10] | mortality at 4 mg/m2 [11] | mortality at 20 mg/m2 ([11]; surface concentration 20 mg/m^2, exposure 30 minutes)
1 | CC(C)c1nc([C@H](C)NC(=O)c2cc(Cl)cc(S(C)(=O)=O)c2)n(-c2ccc(C#N)cn2)n1 [I-16] | 100% | 100% | 100% | 80% | 100% | 100% | 100% | 100% | 100% | 100% | – | – | – | – | – | – | –
2 | CC(NC(=O)c1cc(Cl)cc(S(C)(=O)=O)c1)c1nc(Cl)nn1-c1ccc(C#N)cn1 (stereo not drawn) [I-32] | – | 100% | 100% | – | 100% | – | – | 100% | 100% | 100% | 100% | – | – | – | – | – | –
3 | CC(NC(=O)c1cc(Cl)cc(S(C)(=O)=O)c1)c1nc(I)nn1-c1ncccn1 (stereo not drawn) [I-41] | 100% | – | – | 100% | – | – | – | – | – | – | – | 100% | 100% | – | – | – | –
4 | CC(NC(=O)c1cc(OC(F)(F)F)cc(C2CC2)c1)c1nc(I)nn1-c1ncccn1 (stereo not drawn) [I-43] | 100% | 100% | 100% | 100% | 100% | 100% | 100% | – | – | – | – | 100% | 100% | – | – | – | –
5 | COc1nc([C@H](C)NC(=O)c2cc(Cl)cc(S(=O)(=O)C(F)(F)F)c2)n(-c2ccc(Cl)cn2)n1 [I-52] | – | – | – | – | 83% | – | – | – | – | – | 90% | – | – | – | – | – | –
6 | C[C@H](NC(=O)c1cc(F)cc(S(C)(=O)=O)c1)c1nc(C2CC2)nn1-c1ccc(C#N)cn1 [I-63] | 100% | – | – | 100% | 100% | – | – | – | – | – | – | 90% | 100% | – | – | – | –
7 | C[C@H](NC(=O)c1cc(F)cc(S(C)(=O)=O)c1)c1nc(C2CC2)nn1-c1ncc(Cl)cn1 [I-66] | 100% | – | – | 100% | 100% | – | – | – | – | – | – | 100% | 100% | 100% | 100% | – | –
8 | C[C@H](NC(=O)c1cc(C(F)F)cc(S(C)(=O)=O)c1)c1nc(C2CC2)nn1-c1ncc(Cl)cn1 [I-67] | 100% | – | – | 100% | 100% | – | – | – | – | – | – | 90% | 100% | 100% | 100% | – | –
9 | COc1nc([C@H](C)NC(=O)c2cc(C(F)F)cc(C3CC3)c2)n(-c2ccc(C#N)cn2)n1 [I-70] | – | 100% | 100% | – | – | – | 80% | – | – | – | 80% | – | – | – | – | – | –
10 | COc1nc([C@H](C)NC(=O)c2cc(Cl)cc(S(=O)(=O)C3CC3)c2)n(-c2ncc(Cl)cn2)n1 [I-79] | 100% | – | – | – | 100% | – | – | – | – | – | – | 90% | 90% | – | 100% | – | –
11 | COc1nc([C@H](C)NC(=O)c2cc(OC(F)(F)F)cc(S(=O)(=O)C3CC3)c2)n(-c2ncc(Cl)cn2)n1 [I-91] | – | – | – | 100% | 100% | – | – | – | – | – | – | 90% | – | – | 100% | – | –
12 | COc1nc([C@H](C)NC(=O)c2cc(C(F)F)cc(S(=O)(=O)C3CC3)c2)n(-c2ccc(Cl)cn2)n1 [I-94] | – | – | – | 100% | 100% | – | – | – | – | – | – | 90% | – | – | 100% | – | –
13 | CCS(=O)(=O)c1cc(C(=O)N[C@@H](C)c2ncnn2-c2ccc(Cl)cn2)cc(C(F)(F)F)c1 [II-45] | – | 100% | 100% | 100% | – | – | – | 100% | 100% | 100% | 80% | – | 100% | – | – | 80 to 100% | –
14 | C[C@H](NC(=O)c1cc(C#N)cc(C2CC2)c1)c1ncnn1-c1ccc(C#N)cn1 [II-53] | – | 80% | 80% | – | 83% | – | – | 100% | – | – | 100% | – | – | – | – | 80 to 100% | 80 to 100%
15 | C[C@H](NC(=O)c1cc(I)cc(C2CC2)c1)c1ncnn1-c1ccc(C#N)cn1 [II-58] | – | 100% | 100% | 100% | 100% | 100% | 100% | 100% | 100% | – | 80% | – | – | – | – | – | –
16 | C[C@H](NC(=O)c1cc(Br)cc(C2CC2)c1)c1ncnn1-c1ccc(C#N)cn1 [II-59] | 100% | 100% | 100% | 100% | 100% | 100% | 100% | – | 80% | – | 100% | – | – | – | – | – | –

Source: US20260206761A1, “HETEROARYL-TRIAZOLE COMPOUNDS AS PESTICIDES” (Bayer Aktiengesellschaft, priority 2019, published 2026)
